According to PubChem BioAssay AID240 (DTP/NCI, 2004):
Several values for one entry are separate records, joined by “and”; a condition that tells them apart may be missing. Equal values may be shown once. Inconclusive results and toxic doses are left out.

Test system: Lymphoma 4 ip in BDF1 mice, median survival
Test: NCI In Vivo Anticancer Drug Screen. Data for tumor model Lymphoma 4 (intraperitoneal) in B6D2F1 (BDF1) mice
Details: endpoint: median survival time, higher = longer survival
Description: The antitumor activity of compounds was measured in mice bearing transplantable tumors. Survival or tumor size were measured and the results are expressed as the measurement made in the treated group (T) divided by the measurement made in the vehicle treated control group (C). The tumor model used in this assay is Lymphoma 4 (intraperitoneal) in B6D2F1 (BDF1) mice

[1] = dose: 25.0 mg/kg/injection, schedule: Q01DX010 (ip), vehicle: saline
[2] = dose: 20.0 mg/kg/injection, schedule: Q01DX010 (ip), vehicle: saline
[3] = dose: 40.0 mg/kg/injection, schedule: Q01DX010 (ip), vehicle: saline
[4] = dose: 80.0 mg/kg/injection, schedule: Q01DX010 (ip), vehicle: saline
[5] = dose: 50.0 mg/kg/injection, schedule: Q01DX010 (ip), vehicle: saline
[6] = dose: 62.5 mg/kg/injection, schedule: Q01DX010 (ip), vehicle: saline
[7] = dose: 125.0 mg/kg/injection, schedule: Q01DX010 (ip), vehicle: saline
[8] = dose: 250.0 mg/kg/injection, schedule: Q01DX010 (ip), vehicle: saline
[9] = dose: 10.0 mg/kg/injection, schedule: Q01DX010 (ip), vehicle: saline
[10] = dose: 0.25 mg/kg/injection, schedule: Q01DX010 (ip), vehicle: saline
[11] = dose: 1.0 mg/kg/injection, schedule: Q01DX010 (ip), vehicle: saline
[12] = dose: 2.0 mg/kg/injection, schedule: Q01DX010 (ip), vehicle: saline

## O=[n+]1c2c(n([O-])c3ccccc31)-c1cccc3cccc-2c13
dose: 3.13 mg/kg/injection, schedule: Q01DX010 (ip), vehicle: saline
  T/C: 107 % of control
dose: 6.25 mg/kg/injection, schedule: Q01DX010 (ip), vehicle: saline
  T/C: 107 % of control
dose: 12.5 mg/kg/injection, schedule: Q01DX010 (ip), vehicle: saline
  T/C: 115 % of control
[1]
  T/C: 100 % of control

## Nc1nc2n[nH]nc2c(=O)[nH]1
dose: 25.0 mg/kg/injection, schedule: Q01DX010 (ip), vehicle: alkali diluted with saline
  T/C: 106 % of control
dose: 50.0 mg/kg/injection, schedule: Q01DX010 (ip), vehicle: alkali diluted with saline
  T/C: 120 % of control
dose: 200.0 mg/kg/injection, schedule: Q01DX010 (ip), vehicle: alkali diluted with saline
  T/C: 90 % of control

## OCC1OC(n2cnc3c(=S)nc[nH]c32)C(O)C1O (stereo not given)
[2]
  T/C: 96 % of control and 105 % of control
[3]
  T/C: 106 % of control and 111 % of control
[4]
  T/C: 100 % of control and 109 % of control
dose: 160.0 mg/kg/injection, schedule: Q01DX010 (ip), vehicle: saline
  T/C: 100 % of control and 105 % of control

## CN(C)c1ccc(Nc2c3ccccc3nc3ccccc23)cc1
dose: 36.0 mg/kg/injection, schedule: Q01DX010 (ip), vehicle: saline
  T/C: 107 % of control
dose: 54.0 mg/kg/injection, schedule: Q01DX010 (ip), vehicle: saline
  T/C: 100 % of control and 115 % of control
[4]
  T/C: 121 % of control and 123 % of control

## CC(=O)Nc1ccc2nc3ccc(NC(C)=O)cc3[n+](-c3ccccc3)c2c1
[1]
  T/C: 111 % of control
[5]
  T/C: 117 % of control

## OCC1OC(n2cnc3c(Cl)ncnc32)C(O)C1O (stereo not given)
[6]
  T/C: 100 % of control and 103 % of control
[7]
  T/C: 94 % of control and 103 % of control
[8]
  T/C: 94 % of control and 106 % of control
dose: 500.0 mg/kg/injection, schedule: Q01DX010 (ip), vehicle: saline
  T/C: 94 % of control and 100 % of control

## Nc1c(Br)cc2c(c1Br)Cc1cc([N+](=O)[O-])ccc1-2
dose: 15.6 mg/kg/injection, schedule: Q01DX010 (ip), vehicle: saline
  T/C: 100 % of control
dose: 31.3 mg/kg/injection, schedule: Q01DX010 (ip), vehicle: saline
  T/C: 107 % of control and 118 % of control
[6]
  T/C: 107 % of control and 111 % of control
[7]
  T/C: 111 % of control and 114 % of control
[8]
  T/C: 103 % of control

## O=c1[nH]c(=O)n(C2CC(O)C(CO)O2)cc1F (stereo not given)
[9]
  T/C: 103 % of control
[2]
  T/C: 116 % of control and 123 % of control
[3]
  T/C: 119 % of control

## CC(=O)NC1=C(N2CC2)C(=O)C(NC(C)=O)=C(N2CC2)C1=O
[10]
  T/C: 121 % of control
[11]
  T/C: 175 % of control
[12]
  T/C: 164 % of control

## CN(C)/N=N/c1nc[nH]c1C(N)=O
[1]
  T/C: 114 % of control
[5]
  T/C: 114 % of control
dose: 200.0 mg/kg/injection, schedule: Q01DX010 (ip), vehicle: saline
  T/C: 114 % of control

## Nc1nc(F)nc2c1ncn2C1OC(CO)C(O)C1O (stereo not given)
[10]
  T/C: 100 % of control
dose: 0.5 mg/kg/injection, schedule: Q01DX010 (ip), vehicle: saline
  T/C: 107 % of control and 114 % of control
[11]
  T/C: 92 % of control and 103 % of control
[12]
  T/C: 107 % of control
dose: 4.0 mg/kg/injection, schedule: Q01DX010 (ip), vehicle: saline
  T/C: 96 % of control

## C[C@]12C=CC(=O)C=C1CC[C@@H]1[C@@H]2[C@@H](O)C[C@@]2(C)[C@H]1CC[C@]2(O)C(=O)CO
dose: 12.5 mg/kg/injection, schedule: Q01DX010 (sc), vehicle: steriod suspending solution
  T/C: 123 % of control
dose: 25.0 mg/kg/injection, schedule: Q01DX010 (sc), vehicle: steriod suspending solution
  T/C: 116 % of control
dose: 50.0 mg/kg/injection, schedule: Q01DX010 (sc), vehicle: steriod suspending solution
  T/C: 110 % of control
dose: 100.0 mg/kg/injection, schedule: Q01DX010 (sc), vehicle: steriod suspending solution
  T/C: 116 % of control

## CO[C@@H]1[C@@H](OC2OC(C)C(OC3CC(C)(O)C(OC(=O)CC(C)C)C(C)O3)C(N(C)C)C2O)[C@@H](CC=O)C[C@@H](C)C(=O)/C=C/C2O[C@H]2C[C@@H](C)OC(=O)C[C@H]1OC(C)=O (stereo not given in full)
dose: 37.5 mg/kg/injection, schedule: Q01DX010 (ip), vehicle: saline
  T/C: 100 % of control and 107 % of control
dose: 75.0 mg/kg/injection, schedule: Q01DX010 (ip), vehicle: saline
  T/C: 100 % of control and 111 % of control
dose: 150.0 mg/kg/injection, schedule: Q01DX010 (ip), vehicle: saline
  T/C: 100 % of control and 118 % of control
dose: 300.0 mg/kg/injection, schedule: Q01DX010 (ip), vehicle: saline
  T/C: 100 % of control and 111 % of control

## N#[N+]c1cnc([O-])[nH]c1=O
dose: 1.25 mg/kg/injection, schedule: Q01DX010 (ip), vehicle: saline
  T/C: 113 % of control
dose: 5.0 mg/kg/injection, schedule: Q01DX010 (ip), vehicle: saline
  T/C: 150 % of control
[9]
  T/C: 176 % of control
